Test results: US10882852B1, “3-vinylquinolines as cancer cells inhibitors” (King Abdulaziz University, priority 2020, dated 2021)
Several values for one entry are separate records, joined by “and”; a condition that tells them apart may be missing. Equal entries are not always repeated. Where two headings read alike, the source gives them in different places.

Key:
bovine brain tubulin = assay: Tubulin polymerization assay; type: biochemical; settings: for IC50: inhibition of tubulin polymerization, tubulin at 10 μM, read-out: Tubulin assembly IC50 ± SD; for fold less active than CA-4 in tubulin assembly: versus CA-4
Procedure: The assembly of purified bovine tubulin was monitored using a kit, BK006, purchased from Cytoskeleton Inc., (Denver, Colo., USA). The assay was carried out in accordance with the manufacturer's instructions using the standard assay conditions. […] Light is scattered proportionally to the concentration of polymerized microtubules in the assay. Therefore, tubulin assembly was monitored turbidimetrically at 340 nm in a Spectramax 340 PC spectrophotometer (Molecular Devices, Sunnyvale, Calif., USA). The concentration that inhibits tubulin polymerization by 50% (IC50) was determined using area under the curve (AUC). The AUC of the untreated controls were considered as 100% polymerization. The IC50 value for each compound was computed using GraphPad Prism Software.

HL-60 leukemia cells = assay: MTT cell viability assay, HL-60; type: cell-based, human; settings: Homo sapiens
Procedure: (§1) All the human tumour cell lines MCF-7, HCT-116, HL-60 and HeLa were cultured in Dulbecco's Modified Eagle's Medium (DMEM) with 10% fetal bovine serum, 2 mM L-glutamine and 100 µg/mL penicillin/streptomycin. Cells were maintained at 37° C. in 5% CO2 in a humidified incubator. All cells were sub-cultured 3 times/week by trypsinization using TrypLE Express (1×).
(§2) The quinoline compounds were evaluated for antiproliferative effect using the MTT viability assay of four cancer cell lines (MCF-7, HCT-116, HL-60 and HeLa) and normal breast cells MCF-10A to calculate the relative IC50 values for each compound. Cells were seeded in triplicate in 96-well plates at a density of 10×10^3 cells/ml in a total volume of 200 μl per well. 0.1% of DMSO was used as a vehicle control. After this time, they were treated with 2 μl test compound which had been pre-prepared as stock solutions in ethanol to furnish the concentration range of study, 1 nM to 50 μM, and re-incubated for a further 72 h. The culture medium was then removed, and the cells washed with 100 μL phosphate buffered saline (PBS) and 50 μL MTT added, to reach a final concentration of 1 mg/mL MTT added. Cells were incubated for 2 h in darkness at 37° C. At this point solubilisation was begun through the addition of […] DMSO and the cells maintained at room temperature in darkness for 20 min to ensure thorough colour diffusion before reading the absorbance. Plates were incubated for 72 hours at 37° C.+5% CO2, The MTT (5 mg/mL in PBS) was added and incubated for another 4 h, the optical density was detected with a microplate reader at 570 nm. Results were expressed as percentage viability relative to vehicle control (100%). Dose response curves were plotted and IC50 values (concentration of drug resulting in 50% reduction in cell survival) were obtained using the commercial software package Prism (GraphPad Software, Inc., La Jolla, Calif., USA). All the experiments were repeated in at least three independent experiments.

[1] = tested on: MCF-7 breast cancer cells; assay: MTT cell viability assay, MCF-7; type: cell-based, human; settings: Homo sapiens, MCF7, MCF-7, MTT
Procedure: as §1, §2

[2] = tested on: HCT-116 colon cancer cells; assay: MTT cell viability assay, HCT-116; type: cell-based, human; settings: Homo sapiens, HCT-116, MTT
Procedure: as §1, §2

[3] = tested on: HeLa cervical cancer cells; assay: MTT cell viability assay, HeLa; type: cell-based, human; settings: Homo sapiens
Procedure: as §1, §2

[4] = tested on: MCF-7, HL-60, HCT-116 and HeLa cancer cells; assay: MTT antiproliferative activity over the panel of four cancer cell lines; type: cell-based, human; settings: for antiproliferative activity (in words): four cancer cell lines, MTT
Procedure: as §1, §2

[5] = HL-60, 72 h, HL-60, MTT, 72 h, mean ± spread of three experiments, read-out: IC50 value (μM) HL-60

Compound	IC50 (bovine brain tubulin)	melting point	other results
COc1cc(C2=NC(=Cc3cc4ccccc4nc3OC)C(=O)O2)cc(OC)c1OC [Compound 8a, 4-[(2-Methoxyquinolin-3-yl)methylene]-2-(3,4,5-trimethoxyphenyl)oxazol-5(4H)-one]	13900 nM and 14000 nM	215 to 217 °C	fold less active than CA-4 in tubulin assembly (bovine brain tubulin): 4 fold
COc1cc(C2=NC(=Cc3cc4cc(C)ccc4nc3OC)C(=O)O2)cc(OC)c1OC [Compound 8b, 4-[(2-Methoxy-6-methylquinolin-3-yl)methylene]-2-(3,4,5-trimethoxyphenyl)oxazol-5(4H)-one]	–	218 to 220 °C	–
COc1cc(C2=NC(=Cc3cc4cccc(C)c4nc3OC)C(=O)O2)cc(OC)c1OC [Compound 8d, 4-[(2-Methoxy-8-methylquinolin-3-yl)methylene]-2-(3,4,5-trimethoxyphenyl)oxazol-5(4H)-one]	–	236 to 238 °C	–
COc1ccc2nc(OC)c(/C=C3\N=C(c4cc(OC)c(OC)c(OC)c4)OC3=O)cc2c1 [Compound 8e]	2200 nM and 2260 nM	242 to 244 °C	IC50 (HL-60 leukemia cells; HL-60, HL-60, MTT, read-out: IC50 in HL-60 (unit inferred)): 0.0685 µM; IC50 ([1]; read-out: IC50 in MCF-7 (unit inferred)): 56.8 nM; IC50 ([2]; read-out: IC50 in HCT-116 (unit inferred)): 0.0318 µM; IC50 ([3]; read-out: IC50 in HeLa (unit inferred)): 10.1 nM
COc1ccc2cc(C=C3N=C(c4cc(OC)c(OC)c(OC)c4)OC3=O)c(OC)nc2c1 [Compound 8f, 4-[(2,7-Dimethoxyquinolin-3-yl)methylene]-2-(3,4,5-trimethoxyphenyl)oxazol-5(4H)-one]	–	221 to 223 °C	–
COc1cc(C2=NC(=Cc3cc4ccc(OC(C)C)cc4nc3OC)C(=O)O2)cc(OC)c1OC [Compound 8g, 4-[(7-Isopropoxy-2-methoxyquinolin-3-yl)methylene]-2-(3,4,5-trimethoxyphenyl)oxazol-5(4H)-one]	8230 nM	227 to 229 °C	fold less active than CA-4 in tubulin assembly (bovine brain tubulin): 6 fold
COc1cc(C2=NC(=Cc3cc4ccc(OCc5ccccc5)cc4nc3OC)C(=O)O2)cc(OC)c1OC [Compound 8h, 4-[(7-(Benzyloxy)-2-methoxyquinolin-3-yl)methylene]-2-(3,4,5-trimethoxyphenyl)oxazol-5(4H)-one]	–	247 to 249 °C	–
COc1cc(C2=NC(=Cc3cc4ccccc4nc3OC)C(=O)N2)cc(OC)c1OC [Compound 9a, 5-[(2-Methoxyquinolin-3-yl)methylene]-2-(3,4,5-trimethoxyphenyl)-3,5-dihydro-4H-imidazol-4-one]	–	230 to 232 °C	–
COc1cc(C2=NC(=Cc3cc4cc(C)ccc4nc3OC)C(=O)N2)cc(OC)c1OC [Compound 9b, 5-[(2-Methoxy-6-methylquinolin-3-yl)methylene]-2-(3,4,5-trimethoxyphenyl)-3,5-dihydro-4H-imidazol-4-one]	–	223 to 225 °C	antiproliferative activity (in words) [4]: potent activity in submicromolar range
COc1cc(C2=NC(=Cc3cc4ccc(C)cc4nc3OC)C(=O)N2)cc(OC)c1OC [Compound 9c, 5-[(2-Methoxy-7-methylquinolin-3-yl)methylene]-2-(3,4,5-trimethoxyphenyl)-3,5-dihydro-4H-imidazol-4-one]	20200 nM and 20300 nM	236 to 238 °C	fold less active than 8c in tubulin polymerization (bovine brain tubulin; versus oxazolone derivative 8c): 16 fold; IC50 ([4]; Homo sapiens, panel of HL-60, MCF-7, HCT-116, HeLa, read-out: IC50 values across the four cancer cell lines): 22300 to 73300 nM; antiproliferative activity (in words) [4]: potent activity in submicromolar range
COc1cc(C2=NC(=Cc3cc4cccc(C)c4nc3OC)C(=O)N2)cc(OC)c1OC [Compound 9d, 5-[(2-Methoxy-8-methylquinolin-3-yl)methylene]-2-(3,4,5-trimethoxyphenyl)-3,5-dihydro-4H-imidazol-4-one]	–	233 to 235 °C	antiproliferative activity (in words) [4]: potent activity in submicromolar range
COc1ccc2nc(OC)c(C=C3N=C(c4cc(OC)c(OC)c(OC)c4)NC3=O)cc2c1 [Compound 9e, 5-[(2,6-Dimethoxyquinolin-3-yl)methylene]-2-(3,4,5-trimethoxyphenyl)-3,5-dihydro-4H-imidazol-4-one]	1400 nM and 1480 nM	253 to 255 °C	IC50 (HL-60 leukemia cells; [5]): 0.272 ± 0.05 µM; IC50 ([1]; read-out: IC50 in MCF-7): 42.9 nM; IC50 ([2]; 72 h, read-out: IC50 value (μM) HCT-116): 0.085 ± 0.003 µM; IC50 ([3]; read-out: IC50 in HeLa): 62.3 nM
COc1ccc2cc(C=C3N=C(c4cc(OC)c(OC)c(OC)c4)NC3=O)c(OC)nc2c1 [Compound 9f, 5-[(2,7-Dimethoxyquinolin-3-yl)methylene]-2-(3,4,5-trimethoxyphenyl)-3,5-dihydro-4H-imidazol-4-one]	–	241 to 243 °C	IC50 ([1]; read-out: IC50 in MCF-7): 92.7 nM; IC50 ([2]; read-out: IC50 in HCT-116): 0.188 µM; IC50 ([3]; read-out: IC50 in HeLa): 101 nM
COc1cc(C2=NC(=Cc3cc4ccc(OC(C)C)cc4nc3OC)C(=O)N2)cc(OC)c1OC [Compound 9g, 5-((7-Isopropoxy-2-methoxyquinolin-3-yl)methylene)-2-(3,4,5-trimethoxyphenyl)-3,5-dihydro-4H-imidazol-4-one]	–	238 to 240 °C	–
COc1cc(C2=NC(=Cc3cc4ccc(OCc5ccccc5)cc4nc3OC)C(=O)N2)cc(OC)c1OC [Compound 9h, 5-[(7-(Benzyloxy)-2-methoxyquinolin-3-yl)methylene]-2-(3,4,5-trimethoxyphenyl)-3,5-dihydro-4H-imidazol-4-one]	–	259 to 261 °C	IC50 (HL-60 leukemia cells; [5]): 4.93 ± 0.26 µM
